One assay deals with C. albicans ATCC 90028. Put plainly: Anti-Fungal (Candida) Activity Assay, broth microtiter MIC. In kind it is cell-based. The note with it: ATCC90028, 48 h, 3 replicates, MIC read at 48 h. In outline: (§1)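 Broth microdilution per CLSI M27-A3 in RPMI 1640 + MOPS, at a final inoculum of 2.5×10^3 CFU/mL. Compound DMSO stocks were diluted in water to a 128 μg/mL working solution. MIC was read visually against the growth control at 48 h.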

Assay [1] has as its system C. parapsilosis ATCC 22019. The description is as above. It is filed as cell-based. The note with it: Lodderomyces parapsilosis, ATCC22019, 48 h, 3 replicates, MIC read at 48 h. In short, it runs like this: as §1

Structures are written as SMILES. Values after ≈ are worked out from the molar mass of the structure shown.

As usually defined, the MIC is the lowest concentration that inhibits growth of the organism. A high value points to weaker potency. `CCNC(=O)C(C)(C)n1c(=O)c2c(C)c(C(=O)OCC)sc2n(C[C@H](OCCC#N)c2cc(F)ccc2OC)c1=O` [Compound I-29, (R)-ethyl 1-(2-(2-cyanoethoxy)-2-(5-fluoro-2-methoxy-phenyl)ethyl)-3-(1-(ethylamino)-2-methyl-1-oxopropan-2-yl)-5-methyl-2,4-dioxo-1,2,3,4-tetrahydrothieno[2,3-d]pyrimidine-6-carboxylate]: the MIC against C. albicans ATCC 90028 (Table 3b (additional results)) was 1.1 to 2 mg/L (≈ 1.87 to 3.4 µM); in assay [1] (Table 3b (additional results)) it was 2.1 to 4 mg/L (≈ 3.57 to 6.8 µM).
On to `CCOC(=O)c1sc2c(c1C)c(=O)n([C@H](C)C(=O)NC(C)C)c(=O)n2C[C@H](O)c1cc(F)ccc1OC` [Compound I-43, ethyl 1-((R)-2-(5-fluoro-2-methoxyphenyl)-2-hydroxyethyl)-3-((R)-1-(isopropylamino)-1-oxopropan-2-yl)-5-methyl-2,4-dioxo-1,2,3,4-tetrahydrothieno[2,3-d]pyrimidine-6-carboxylate], for which the MIC (in the assay on C. albicans ATCC 90028 (Table 3b (additional results)); in assay [1] (Table 3b (additional results))) was 2.1 to 4 mg/L (≈ 3.92 to 7.47 µM) in each case.
Consider `CCOC(=O)c1sc2c(c1C)c(=O)n(C(C)(C)C(=O)N1CCCCC1)c(=O)n2C[C@H](OC(C)C)c1ccccc1OC` [Compound I-6, (R)-ethyl 1-(2-isopropoxy-2-(2-methoxyphenyl)ethyl)-5-methyl-3-(2-methyl-1-oxo-1-(piperidin-1-yl)propan-2-yl)-2,4-dioxo-1,2,3,4-tetrahydrothieno[2,3-d]pyrimidine-6-carboxylate], for which the MIC in the assay on C. albicans ATCC 90028 (Table 3a) is 2.1 to 4 mg/L (≈ 3.5 to 6.67 µM); in the assay on C. albicans ATCC 90028 (Table 3b (additional results)) it was 2.1 to 4 mg/L (≈ 3.5 to 6.67 µM); in assay [1] (Table 3a), greater than 4.1 mg/L; in assay [1] (Table 3b (additional results)), 2.1 to 4 mg/L (≈ 3.5 to 6.67 µM).
Regarding `CCOC(=O)c1sc2c(c1C)c(=O)n(C(C)(C)C(=O)NC(C)C)c(=O)n2C[C@H](OCCO)c1cc(F)ccc1OC` [Compound I-18, (R)-ethyl 1-(2-(5-fluoro-2-methoxyphenyl)-2-(2-hydroxy-ethoxy)ethyl)-3-(1-(isopropylamino)-2-methyl-1-oxopropan-2-yl)-5-methyl-2,4-dioxo-1,2,3,4-tetrahydrothieno[2,3-d]pyrimidine-6-carboxylate], the MIC lay within 1.1 to 2 mg/L (≈ 1.85 to 3.37 µM) in the assay on C. albicans ATCC 90028 (Table 3a), 1.1 to 2 mg/L (≈ 1.85 to 3.37 µM) in the assay with C. albicans ATCC 90028 (Table 3b (additional results)), 2.1 to 4 mg/L (≈ 3.54 to 6.74 µM) in assay [1] (Table 3a) and 1.1 to 2 mg/L (≈ 1.85 to 3.37 µM) in assay [1] (Table 3b (additional results)).
`CCOC(=O)c1sc2c(c1C)c(=O)n(C(C)(C)C(=O)NC(C)C)c(=O)n2C[C@H](OCCOC)c1cc(F)ccc1OC` [Compound I-11, (R)-ethyl 1-(2-(5-fluoro-2-methoxyphenyl)-2-(2-methoxy-ethoxy)ethyl)-3-(1-(isopropylamino)-2-methyl-1-oxopropan-2-yl)-5-methyl-2,4-dioxo-1,2,3,4-tetrahydrothieno[2,3-d]pyrimidine-6-carboxylate]: the MIC with C. albicans ATCC 90028 (Table 3a) lay within 2.1 to 4 mg/L (≈ 3.46 to 6.58 µM); in the assay on C. albicans ATCC 90028 (Table 3b (additional results)), 2.1 to 4 mg/L (≈ 3.46 to 6.58 µM); in assay [1] (Table 3a) it was 2.1 to 4 mg/L (≈ 3.46 to 6.58 µM); in assay [1] (Table 3b (additional results)), 1.1 to 2 mg/L (≈ 1.81 to 3.29 µM).
As to `CCOC(=O)c1sc2c(c1C)c(=O)n([C@H](C)C(=O)N(C)C(C)C)c(=O)n2C[C@H](OCCC#N)c1cc(F)ccc1OC` [Compound I-27, ethyl 1-((R)-2-(2-cyanoethoxy)-2-(5-fluoro-2-methoxy-phenyl)ethyl)-3-((R)-1-(isopropyl(methyl)amino)-1-oxopropan-2-yl)-5-methyl-2,4-dioxo-1,2,3,4-tetrahydrothieno[2,3-d]pyrimidine-6-carboxylate], the MIC (against C. albicans ATCC 90028 (Table 3b (additional results)); in assay [1] (Table 3b (additional results))) was 2.1 to 4 mg/L (≈ 3.48 to 6.64 µM) each time.
On to `CCOC(=O)c1sc2c(c1C)c(=O)n(C(C)(C)C(=O)N1CCCC1)c(=O)n2C[C@H](OC1CCOCC1)c1ccccc1OC` [Compound I-3, ethyl (R)-1-(2-(2-methoxyphenyl)-2-((tetrahydro-2H-pyran-4-yl)oxy)ethyl)-5-methyl-3-(2-methyl-1-oxo-1-(pyrrolidin-1-yl)propan-2-yl)-2,4-dioxo-1,2,3,4-tetrahydrothieno[2,3-d]pyrimidine-6-carboxylate], for which the MIC (with C. albicans ATCC 90028 (Table 3a); with C. albicans ATCC 90028 (Table 3b (additional results)); in assay [1] (Table 3a); in assay [1] (Table 3b (additional results))) was 0.25 to 1 mg/L (≈ 0.398 to 1.59 µM) each time.
On to `CCOC(=O)c1sc2c(c1C)c(=O)n(C(C)(C)C(=O)N1CCOCC1)c(=O)n2C[C@H](OC(C)C)c1ccccc1OC` [Compound I-5, (R)-ethyl 1-(2-isopropoxy-2-(2-methoxyphenyl)ethyl)-5-methyl-3-(2-methyl-1-morpholino-1-oxopropan-2-yl)-2,4-dioxo-1,2,3,4-tetrahydrothieno[2,3-d]pyrimidine-6-carboxylate], for which the MIC was greater than 4.1 mg/L with C. albicans ATCC 90028 (Table 3a), greater than 4.1 mg/L in the assay on C. albicans ATCC 90028 (Table 3b (additional results)), greater than 4.1 mg/L in assay [1] (Table 3a) and 2.1 to 4 mg/L (≈ 3.49 to 6.65 µM) in assay [1] (Table 3b (additional results)).
Take `CCOC(=O)c1sc2c(c1C)c(=O)n(C(C)(C)C(=O)N1CCCC1)c(=O)n2C[C@H](OC(C)C)c1ccccc1OC` [Compound I-7, (R)-ethyl 1-(2-isopropoxy-2-(2-methoxyphenyl)ethyl)-5-methyl-3-(2-methyl-1-oxo-1-(pyrrolidin-1-yl)propan-2-yl)-2,4-dioxo-1,2,3,4-tetrahydrothieno[2,3-d]pyrimidine-6-carboxylate]: the MIC (in the assay on C. albicans ATCC 90028 (Table 3a); against C. albicans ATCC 90028 (Table 3b (additional results)); in assay [1] (Table 3a); in assay [1] (Table 3b (additional results))) was 2.1 to 4 mg/L (≈ 3.59 to 6.83 µM) each time.
`CCOC(=O)c1sc2c(c1C)c(=O)n(C(C)(C)C(=O)NC(C)C)c(=O)n2C[C@H](OCCC#N)c1cc(F)ccc1OC` [Compound I-15, (R)-ethyl 1-(2-(2-cyanoethoxy)-2-(5-fluoro-2-methoxy-phenyl)ethyl)-3-(1-(isopropylamino)-2-methyl-1-oxopropan-2-yl)-5-methyl-2,4-dioxo-1,2,3,4-tetrahydrothieno[2,3-d]pyrimidine-6-carboxylate]: the MIC was in the range of 0.25 to 1 mg/L (≈ 0.415 to 1.66 µM) against C. albicans ATCC 90028 (Table 3a), 0.25 to 1 mg/L (≈ 0.415 to 1.66 µM) in the assay with C. albicans ATCC 90028 (Table 3b (additional results)), 0.25 to 1 mg/L (≈ 0.415 to 1.66 µM) in assay [1] (Table 3a) and 2.1 to 4 mg/L (≈ 3.48 to 6.64 µM) in assay [1] (Table 3b (additional results)).
With `CCOC(=O)c1sc2c(c1C)c(=O)n(C(C)(C)C(N)=O)c(=O)n2C[C@H](OCCC#N)c1cc(F)ccc1OC` [Compound I-14, (R)-ethyl 3-(1-amino-2-methyl-1-oxopropan-2-yl)-1-(2-(2-cyanoethoxy)-2-(5-fluoro-2-methoxyphenyl)ethyl)-5-methyl-2,4-dioxo-1,2,3,4-tetrahydro-thieno[2,3-d]pyrimidine-6-carboxylate], the MIC against C. albicans ATCC 90028 (Table 3a) was greater than 4.1 mg/L; against C. albicans ATCC 90028 (Table 3b (additional results)) it was 2.1 to 4 mg/L (≈ 3.75 to 7.14 µM); in assay [1] (Table 3a), greater than 4.1 mg/L; in assay [1] (Table 3b (additional results)), 1.1 to 2 mg/L (≈ 1.96 to 3.57 µM).
On to `CCOC(=O)c1sc2c(c1C)c(=O)n(C(C)(C)C(=O)N1CCCC1)c(=O)n2C[C@H](OCCO)c1cc(F)ccc1OC` [Compound I-12, (R)-ethyl 1-(2-(5-fluoro-2-methoxyphenyl)-2-(2-hydroxy-ethoxy)ethyl)-5-methyl-3-(2-methyl-1-oxo-1-(pyrrolidin-1-yl)propan-2-yl)-2,4-dioxo-1,2,3,4-tetrahydrothieno[2,3-d]pyrimidine-6-carboxylate], for which the MIC in the assay on C. albicans ATCC 90028 (Table 3a) was greater than 4.1 mg/L; in the assay with C. albicans ATCC 90028 (Table 3b (additional results)), 2.1 to 4 mg/L (≈ 3.47 to 6.6 µM); in assay [1] (Table 3a), greater than 4.1 mg/L; in assay [1] (Table 3b (additional results)), 0.25 to 1 mg/L (≈ 0.413 to 1.65 µM).
